Each structure is given as a SMILES string.

59 molecules from patent US9637472B2, “Substituted 6,5-fused bicyclic heteroaryl compounds” (Epizyme, Inc., priority 2011, dated 2017) can be followed below.

This assay deals with EZH2 (Homo sapiens (Human), UniProt Q15910). Description: PRC2 enzyme assay on peptide substrates. It is filed as biochemical. The conditions noted are these: PRC2 enzyme assays on peptide substrates; 4 nM enzyme, 30 min preincubation at 25° C.; read-out: EZH2 IC50.
Chain of EZH2 (Q15910 other isoform, or with tags, fused parts or gaps): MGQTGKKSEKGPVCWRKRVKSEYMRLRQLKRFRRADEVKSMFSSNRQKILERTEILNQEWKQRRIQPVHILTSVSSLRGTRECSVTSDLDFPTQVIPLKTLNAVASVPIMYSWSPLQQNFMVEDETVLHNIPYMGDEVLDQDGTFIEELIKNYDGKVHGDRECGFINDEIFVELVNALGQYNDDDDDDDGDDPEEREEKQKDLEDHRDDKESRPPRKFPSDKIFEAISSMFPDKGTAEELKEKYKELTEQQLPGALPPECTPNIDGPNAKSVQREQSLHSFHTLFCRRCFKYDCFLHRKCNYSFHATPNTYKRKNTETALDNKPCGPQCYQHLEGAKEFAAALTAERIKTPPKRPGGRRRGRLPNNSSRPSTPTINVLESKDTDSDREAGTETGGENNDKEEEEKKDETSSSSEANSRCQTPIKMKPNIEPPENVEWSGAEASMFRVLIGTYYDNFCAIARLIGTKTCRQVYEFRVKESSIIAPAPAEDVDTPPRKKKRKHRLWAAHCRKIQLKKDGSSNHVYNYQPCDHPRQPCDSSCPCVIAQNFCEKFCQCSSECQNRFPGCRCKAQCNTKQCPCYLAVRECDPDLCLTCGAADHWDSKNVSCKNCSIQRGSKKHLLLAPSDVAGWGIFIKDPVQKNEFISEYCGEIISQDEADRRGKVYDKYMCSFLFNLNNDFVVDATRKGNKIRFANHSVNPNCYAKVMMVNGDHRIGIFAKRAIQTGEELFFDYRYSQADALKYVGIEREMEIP
Chain of EZH2 (O75530 whole entry partner): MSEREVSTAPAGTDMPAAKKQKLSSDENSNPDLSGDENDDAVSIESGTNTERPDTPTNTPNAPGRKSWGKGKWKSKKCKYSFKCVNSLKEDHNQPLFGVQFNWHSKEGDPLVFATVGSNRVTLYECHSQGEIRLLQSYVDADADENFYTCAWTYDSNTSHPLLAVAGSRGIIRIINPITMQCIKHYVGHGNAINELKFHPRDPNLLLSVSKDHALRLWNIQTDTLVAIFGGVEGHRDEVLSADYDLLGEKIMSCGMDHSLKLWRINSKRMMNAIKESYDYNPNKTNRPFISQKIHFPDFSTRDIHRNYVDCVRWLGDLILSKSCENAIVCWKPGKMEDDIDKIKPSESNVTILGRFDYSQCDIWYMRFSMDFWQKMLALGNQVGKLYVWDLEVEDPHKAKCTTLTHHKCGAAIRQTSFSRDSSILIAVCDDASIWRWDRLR
Chain of EZH2 (Q15022 whole entry partner): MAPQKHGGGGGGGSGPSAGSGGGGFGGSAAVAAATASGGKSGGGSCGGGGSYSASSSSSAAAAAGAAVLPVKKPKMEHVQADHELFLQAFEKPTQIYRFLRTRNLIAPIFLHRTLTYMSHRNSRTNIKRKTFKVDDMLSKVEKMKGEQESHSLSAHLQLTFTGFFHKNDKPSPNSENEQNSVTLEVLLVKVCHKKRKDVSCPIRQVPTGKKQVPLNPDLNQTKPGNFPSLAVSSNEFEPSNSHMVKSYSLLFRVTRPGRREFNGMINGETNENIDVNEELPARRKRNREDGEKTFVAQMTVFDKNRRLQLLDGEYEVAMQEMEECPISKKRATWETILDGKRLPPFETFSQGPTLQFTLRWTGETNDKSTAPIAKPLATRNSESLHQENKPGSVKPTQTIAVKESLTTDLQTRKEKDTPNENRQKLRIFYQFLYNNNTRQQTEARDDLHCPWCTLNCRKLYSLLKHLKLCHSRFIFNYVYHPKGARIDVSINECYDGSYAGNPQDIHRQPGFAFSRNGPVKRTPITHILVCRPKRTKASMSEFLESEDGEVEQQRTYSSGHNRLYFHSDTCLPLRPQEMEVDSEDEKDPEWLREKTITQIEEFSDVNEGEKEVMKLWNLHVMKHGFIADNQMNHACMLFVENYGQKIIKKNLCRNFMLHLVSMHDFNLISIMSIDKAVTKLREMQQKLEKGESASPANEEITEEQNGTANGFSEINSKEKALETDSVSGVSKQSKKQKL
Chain of EZH2 (Q09028 whole entry partner): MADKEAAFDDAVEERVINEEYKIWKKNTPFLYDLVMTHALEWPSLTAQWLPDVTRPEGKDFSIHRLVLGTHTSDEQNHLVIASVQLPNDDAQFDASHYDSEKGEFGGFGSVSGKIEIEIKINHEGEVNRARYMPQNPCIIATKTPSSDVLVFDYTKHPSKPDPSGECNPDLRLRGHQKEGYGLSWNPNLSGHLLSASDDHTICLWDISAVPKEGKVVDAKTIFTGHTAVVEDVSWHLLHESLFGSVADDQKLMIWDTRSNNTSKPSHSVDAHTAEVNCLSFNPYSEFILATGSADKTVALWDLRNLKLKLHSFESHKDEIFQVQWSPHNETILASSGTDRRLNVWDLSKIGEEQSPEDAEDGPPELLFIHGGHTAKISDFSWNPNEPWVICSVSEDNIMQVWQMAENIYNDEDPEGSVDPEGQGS

In general, IC50 refers to the concentration needed to halve the response being measured. Regarding `Cc1cc(C)c(CNC(=O)c2cc(Br)cc3c2cnn3C2CCN(C(=O)C3CNC3)CC2)c(=O)[nH]1` [Compound D-14, 1-(1-(azetidine-3-carbonyl)piperidin-4-yl)-6-bromo-N-((4,6-dimethyl-2-oxo-1,2-dihydropyridin-3-yl)methyl)-1H-indazole-4-carboxamide], the IC50 was less than 300 nM.
Take `Cc1cc(C)c(CNC(=O)c2cc(Br)cc3c2cnn3C2CCN(Cc3ccccc3)CC2)c(=O)[nH]1` [Compound D-15, 1-(1-benzylpiperidin-4-yl)-6-bromo-N-((4,6-dimethyl-2-oxo-1,2-dihydropyridin-3-yl)methyl)-1H-indazole-4-carboxamide]: the IC50 is 300 to 1000 nM.
As to `Cc1cc(C)c(CNC(=O)c2cc(Br)cc3c2cnn3C2CCN(C3CCN(C)CC3)CC2)c(=O)[nH]1` [Compound D-16, 6-bromo-N-((4,6-dimethyl-2-oxo-1,2-dihydropyridin-3-yl)methyl)-1-(1′-methyl-[1,4′-bipiperidin]-4-yl)-1H-indazole-4-carboxamide], the IC50 is less than 300 nM.
The result for `Cc1cc(CN(C)C)c(CNC(=O)c2cc(Br)cc3c2cnn3C2CCCC2)c(=O)[nH]1` [Compound D-17, 6-bromo-1-cyclopentyl-N-((4-((dimethylamino)methyl)-6-methyl-2-oxo-1,2-dihydropyridin-3-yl)methyl)-1H-indazole-4-carboxamide] reads less than 300 nM; that for `Cc1cc(C)c(CNC(=O)c2cc(C(C)C)cc3c2cnn3C2CCCC2)c(=O)[nH]1` [Compound D-20, 1-cyclopentyl-N-((4,6-dimethyl-2-oxo-1,2-dihydropyridin-3-yl)methyl)-6-isopropyl-1H-indazole-4-carboxamide], 300 to 1000 nM.
In the case of `Cc1cc(CN2CCC[C@@H]2C(N)=O)c(CNC(=O)c2cc(Br)cc3c2cnn3C2CCCC2)c(=O)[nH]1` [Compound D-22], the IC50 lay within 1000 to 3000 nM.
For `Cc1cc(C)c(CNC(=O)c2cc(C(F)(F)F)cc3c2cnn3C2CCN(C(=O)C(C)(C)C)CC2)c(=O)[nH]1` [Compound D-23], the IC50 was less than 300 nM.
For `Cc1cc(C)c(CNC(=O)c2cc(Cl)cc3c2cnn3C2CCN(C(=O)C(C)(C)C)CC2)c(=O)[nH]1` [Compound D-24], the IC50 is less than 300 nM.
As for `Cc1cc(C)c(CNC(=O)c2cc(C3=CC(C)(C)NC(C)(C)C3)cc3c2cnn3C2CCN(C(=O)C(C)(C)C)CC2)c(=O)[nH]1` [Compound D-25], the figure is less than 300 nM; as for `Cc1cc(C)c(CNC(=O)c2cc(Br)cc3c2cnn3C2CCN(C(=O)C3CCCC3)CC2)c(=O)[nH]1` [Compound D-26], 300 to 1000 nM.
As to `Cc1cc(C)c(CNC(=O)c2cc(Br)cc3c2cnn3C2CCN(C(=O)C3CCCCC3)CC2)c(=O)[nH]1` [Compound D-27], the concentration for half-maximal inhibition (IC50) fell in the range of 300 to 1000 nM.
Regarding `Cc1cc(C)c(CNC(=O)c2cc(Br)cc3c2cnn3C2CCN(C(=O)C3CCOCC3)CC2)c(=O)[nH]1` [Compound D-28], the IC50 lay in the range of 300 to 1000 nM.
As for `Cc1cc(C)c(CNC(=O)c2cc(Br)cc3c2cnn3C2CCN(C(=O)CN(C)C)CC2)c(=O)[nH]1` [Compound D-29], the figure is 300 to 1000 nM; as for `Cc1cc(C)c(CNC(=O)c2cc(C3CCN(CCCN(C)C)CC3)cc3c2cnn3C2CCCC2)c(=O)[nH]1` [Compound D-30], less than 300 nM; as for `Cc1cc(C)c(CNC(=O)c2cc(Br)cc3c2cnn3C2CCN(C(=O)OC(C)(C)C)C2)c(=O)[nH]1` [Compound D-32], 300 to 1000 nM.
In the case of `Cc1cc(C)c(CNC(=O)c2cc(Br)cc3c2cnn3C2CCN(C(=O)C(C)(C)C)C2)c(=O)[nH]1` [Compound D-33], the IC50 is less than 300 nM.
The result for `Cc1cc(C)c(CNC(=O)c2cc(Br)cc3c2cnn3C2CN(C(=O)OC(C)(C)C)C2)c(=O)[nH]1` [Compound D-34] reads 1000 to 3000 nM; that for `CC(=O)N1CC(n2ncc3c(C(=O)NCc4c(C)cc(C)[nH]c4=O)cc(Br)cc32)C1` [Compound D-35], 1000 to 3000 nM.
As for `Cc1cc(C)c(CNC(=O)c2cc(Br)cc3c2cnn3C2CN(C(=O)C(C)(C)C)C2)c(=O)[nH]1` [Compound D-36], the figure is 1000 to 3000 nM.
Take `Cc1cc(C)c(CNC(=O)c2cc(C3=CCN(C(=O)C4CNC4)CC3)cc3c2cnn3C2CCCC2)c(=O)[nH]1` [Compound D-37]: the IC50 is less than 300 nM.
As for `Cc1cc(C)c(CNC(=O)c2cc(C3=CCN(C(=O)CN(C)C)CC3)cc3c2cnn3C2CCCC2)c(=O)[nH]1` [Compound D-38], the figure is less than 300 nM.
As for `Cc1cc(C)c(CNC(=O)c2cc(C3=CCN(C(=O)C4CCNCC4)CC3)cc3c2cnn3C2CCCC2)c(=O)[nH]1` [Compound D-39], the figure is less than 300 nM; as for `Cc1cc(C)c(CNC(=O)c2cc(C3=CCNCC3)cc3c2cnn3C2CCCC2)c(=O)[nH]1` [Compound D-41], less than 300 nM; as for `Cc1cc(C)c(CNC(=O)c2cc(Br)cc3c2cnn3C2CCN(C(=O)C(C)C)CC2)c(=O)[nH]1` [Compound D-42], less than 300 nM.
The result for `Cc1cc(C)c(CNC(=O)c2cc(C=O)cc3c2cnn3C2CCCC2)c(=O)[nH]1` [Compound D-43] reads less than 300 nM.
Take `CNCC(=O)N1CC=C(c2cc(C(=O)NCc3c(C)cc(C)[nH]c3=O)c3cnn(C4CCCC4)c3c2)CC1` [Compound D-45]: the half-inhibitory concentration (IC50) is less than 300 nM.
As for `Cc1cc(C)c(CNC(=O)c2cc(C3CCN(CCN(C)C)CC3)cc3c2cnn3C2CCCC2)c(=O)[nH]1` [Compound D-46], the figure is less than 300 nM; as for `Cc1cc(C)c(CNC(=O)c2cc(C3=CCN(C(=O)CN)CC3)cc3c2cnn3C2CCCC2)c(=O)[nH]1` [Compound D-47], less than 300 nM; as for `CNCCN1CC=C(c2cc(C(=O)NCc3c(C)cc(C)[nH]c3=O)c3cnn(C4CCCC4)c3c2)CC1` [Compound D-48], less than 300 nM.
The result for `Cc1cc(C)c(CNC(=O)c2cc(C3=CCN(CCN)CC3)cc3c2cnn3C2CCCC2)c(=O)[nH]1` [Compound D-49] reads less than 300 nM.
With `Cc1cc(C)c(CNC(=O)c2cc(C3=CCN(C(=O)C4CN(C)C4)CC3)cc3c2cnn3C2CCCC2)c(=O)[nH]1` [Compound D-50], the IC50 was less than 300 nM.
The result for `CNCCN1CCC(c2cc(C(=O)NCc3c(C)cc(C)[nH]c3=O)c3cnn(C4CCCC4)c3c2)CC1` [Compound D-51] reads less than 300 nM.
`Cc1cc(C)c(CNC(=O)c2cc(Br)cc3c2cnn3C2CCN(C(=O)C3CCNCC3)CC2)c(=O)[nH]1` [Compound D-52]: the IC50 is less than 300 nM.
The result for `Cc1cc(C)c(CNC(=O)c2cc(CNCCN(C)C)cc3c2cnn3C2CCCC2)c(=O)[nH]1` [Compound D-53] reads 300 to 1000 nM.
As for `Cc1cc(C)c(CNC(=O)c2cc(C3=CCN(C(=O)CO)CC3)cc3c2cnn3C2CCCC2)c(=O)[nH]1` [Compound D-54], the figure is 300 to 1000 nM.
Consider `CCC(=O)N1CCC(n2ncc3c(C(=O)NCc4c(C)cc(C)[nH]c4=O)cc(Br)cc32)CC1` [Compound D-55], for which the half-maximal inhibitory concentration (IC50) lay within 300 to 1000 nM.
As for `CC(=O)N1CCC(n2ncc3c(C(=O)NCc4c(C)cc(C)[nH]c4=O)cc(Br)cc32)CC1` [Compound D-59], the figure is 300 to 1000 nM; as for `CCc1cc(C(=O)NCc2c(C)cc(C)[nH]c2=O)c2cnn(C3CCCC3)c2c1` [Compound D-60], 300 to 1000 nM.
Turning to `Cc1cc(CN(C)CCCN(C)C)c(CNC(=O)c2cc(Br)cc3c2cnn3C2CCCC2)c(=O)[nH]1` [Compound D-62], the IC50 lay within 300 to 1000 nM.
The result for `Cc1cc(CN2CCN(C)CC2)c(CNC(=O)c2cc(Br)cc3c2cnn3C2CCCC2)c(=O)[nH]1` [Compound D-63] reads 300 to 1000 nM; that for `Cc1cc(C)c(CNC(=O)c2cc(CN3CCOCC3)cc3c2cnn3C2CCCC2)c(=O)[nH]1` [Compound D-64], 300 to 1000 nM; that for `Cc1cc(C)c(CNC(=O)c2cccc3c2cnn3C2CCCC2)c(=O)[nH]1` [Compound D-66], 300 to 1000 nM.
`Cc1cc(C)c(CNC(=O)c2cc(CN(C)CCCN(C)C)cc3c2cnn3C2CCCC2)c(=O)[nH]1` [Compound D-67]: the half-maximal inhibitory concentration (IC50) was in the range of 300 to 1000 nM.
As for `Cc1cc(C)c(CNC(=O)c2cc(COCCO)cc3c2cnn3C2CCCC2)c(=O)[nH]1` [Compound D-68], the figure is 300 to 1000 nM; as for `Cc1cc(CN2CCNC(=O)C2)c(CNC(=O)c2cc(Br)cc3c2cnn3C2CCCC2)c(=O)[nH]1` [Compound D-69], 1000 to 3000 nM; as for `Cc1cc(C)c(CNC(=O)c2cc(Br)cc3c2cnn3C2CCN(C(C)C)CC2)c(=O)[nH]1` [Compound D-70], 1000 to 3000 nM.
The result for `Cc1cc(C)c(CNC(=O)c2cccc3c2cnn3C(C)C)c(=O)[nH]1` [Compound D-71] reads 1000 to 3000 nM.
As for `COCCOCc1cc(C(=O)NCc2c(C)cc(C)[nH]c2=O)c2cnn(C3CCCC3)c2c1` [Compound D-72], the figure is 1000 to 3000 nM.
Take `COCCNCc1cc(C(=O)NCc2c(C)cc(C)[nH]c2=O)c2cnn(C3CCCC3)c2c1` [Compound D-73]: the IC50 lay in the range of 1000 to 3000 nM.
With `Cc1cc(CN2CCN(C)CC2)c(CNC(=O)c2cccc3c2cnn3C2CCCC2)c(=O)[nH]1` [Compound D-74], the IC50 lay within 1000 to 3000 nM.
Turning to `Cc1cc(CN(C)CCN(C)C)c(CNC(=O)c2cccc3c2cnn3C2CCCC2)c(=O)[nH]1` [Compound D-75], the IC50 lay within 1000 to 3000 nM.
For `Cc1cc(CN(C)CCN)c(CNC(=O)c2cccc3c2cnn3C2CCCC2)c(=O)[nH]1` [Compound D-76], the 50% inhibitory concentration (IC50) is 1000 to 3000 nM.
As for `Cc1cc(C)c(CNC(=O)c2cc(CNCCO)cc3c2cnn3C2CCCC2)c(=O)[nH]1` [Compound D-77], the figure is 1000 to 3000 nM.
Consider `Cc1cc(C)c(CNC(=O)c2cc(CN(C)CCN(C)C)cc3c2cnn3C2CCCC2)c(=O)[nH]1` [Compound D-78], for which the IC50 is 1000 to 3000 nM.
The result for `Cc1cc(CN2CCC(N3CCCCC3)CC2)c(CNC(=O)c2cc(Br)cc3c2cnn3C2CCCC2)c(=O)[nH]1` [Compound D-79] reads 1000 to 3000 nM; that for `Cc1cc(CN(C)CCCN(C)C)c(CNC(=O)c2cccc3c2cnn3C2CCCC2)c(=O)[nH]1` [Compound D-80], 1000 to 3000 nM; that for `Cc1cc(CN(C)C)c(CNC(=O)c2cccc3c2cnn3C2CCCC2)c(=O)[nH]1` [Compound D-81], 3000 to 10000 nM.
In the case of `Cc1cc(CN2CCCC2)c(CNC(=O)c2cccc3c2cnn3C2CCCC2)c(=O)[nH]1` [Compound D-82], the IC50 fell in the range of 3000 to 10000 nM.
On to `CNCc1cc(C)[nH]c(=O)c1CNC(=O)c1cccc2c1cnn2C1CCCC1` [Compound D-83], for which the IC50 lay within 3000 to 10000 nM.
